From ChEMBL document CHEMBL3046900, “Synthesis and Fungitoxic Activity of N-Cinnamoyl--Amino Acid Esters” (2000)

How the values were obtained:
Assay type in all cases: functional
Athelia rolfsii [1] = experiment: Fungitoxic activity against Athelia rolfsii assessed as mycelial growth inhibition at 10 ppm after 3 days; settings: Agroathelia rolfsii, 72 h; read-out: GI
Athelia rolfsii [2] = experiment: Fungitoxic activity against Athelia rolfsii assessed as mycelial growth inhibition at 100 ppm after 3 days; settings: Agroathelia rolfsii, 72 h; read-out: GI
Pythium [3] = experiment: Fungitoxic activity against Pythium sp. assessed as mycelial growth inhibition at 100 ppm after 3 days; settings: 72 h, read-out: GI
Pythium [4] = experiment: Fungitoxic activity against Pythium sp. assessed as mycelial growth inhibition at 10 ppm after 3 days; settings: 72 h, read-out: GI

Structure (SMILES) | inhibition of growth at 10 ppm (Athelia rolfsii [1]) [%] | inhibition of growth at 100 ppm (Athelia rolfsii [2]) [%] | inhibition of growth at 100 ppm (Pythium [3]) [%] | inhibition of growth at 10 ppm (Pythium [4]) [%]
CCOC(=O)[C@H](Cc1ccccc1)NC(=O)/C=C/c1ccccc1 | 27 | 62 | 26 | 
CCOC(=O)[C@H](C)NC(=O)/C=C/c1ccc(C(C)C)cc1 | 27 | 60 | 63 | 0
CCCOC(=O)[C@H](C)NC(=O)/C=C/c1ccc(C(C)C)cc1 | 20 | 53 | 52 | 4
CCCOC(=O)CNC(=O)/C=C/c1ccc(C(C)C)cc1 | 23 | 74 | 63 | 24
CC(C)OC(=O)CNC(=O)/C=C/c1ccc(C(C)C)cc1 | 37 | 79 | 70 | 11
COC(=O)[C@@H](NC(=O)/C=C/c1ccc(C(C)C)cc1)C(C)C | 23 | 63 | 74 | 14
CCOC(=O)[C@@H](NC(=O)/C=C/c1ccc(C(C)C)cc1)C(C)C | 27 | 51 | 67 | 10
COC(=O)[C@H](CC(C)C)NC(=O)/C=C/c1ccc(C(C)C)cc1 |  | 35 | 60 | 6
CC(C)C[C@H](NC(=O)/C=C/c1ccc(C(C)C)cc1)C(=O)OC(C)C | 35 | 56 | 53 | 25
CC[C@H](C)[C@H](NC(=O)/C=C/c1ccc(C(C)C)cc1)C(=O)OC | 41 | 55 | 65 | 26
CCOC(=O)[C@@H](NC(=O)/C=C/c1ccc(Cl)cc1Cl)C(C)C |  | 47 | 68 | 19
COC(=O)[C@H](CC(C)C)NC(=O)/C=C/c1ccc(Cl)cc1Cl |  | 42 | 55 | 12
CC[C@H](C)[C@H](NC(=O)/C=C/c1ccc(Cl)cc1Cl)C(=O)OC |  | 48 | 59 | 18
CCOC(=O)[C@@H](NC(=O)/C=C/c1ccc(Cl)cc1Cl)[C@@H](C)CC |  | 47 | 52 | 20
CCOC(=O)[C@@H](NC(=O)/C=C/c1ccc(C(C)C)cc1)[C@@H](C)CC |  | 45 | 57 | 23
COC(=O)[C@H](Cc1ccccc1)NC(=O)/C=C/c1ccc(C(C)C)cc1 | 28 | 52 | 57 | 8

Structure (SMILES) | inhibition of growth at 10 ppm (Athelia rolfsii [1]) [%] | inhibition of growth at 100 ppm (Athelia rolfsii [2]) [%] | inhibition of growth at 100 ppm (Pythium [3]) [%] | inhibition of growth at 10 ppm (Pythium [4]) [%]
CCCOC(=O)CNC(=O)/C=C/c1ccc(Cl)cc1 | 35 | 56 | 48 | 
CC(C)OC(=O)CNC(=O)/C=C/c1ccc(Cl)cc1 | 41 | 50 | 57 | 0
COC(=O)[C@@H](NC(=O)/C=C/c1ccc(Cl)cc1)C(C)C | 20 | 53 | 52 | 0
CCOC(=O)[C@H](CC(C)C)NC(=O)/C=C/c1ccc(Cl)cc1 | 16 | 53 | 22 | 
CCCOC(=O)[C@H](CC(C)C)NC(=O)/C=C/c1ccc(Cl)cc1 | 25 | 56 | 38 | 
CC(C)C[C@H](NC(=O)/C=C/c1ccc(Cl)cc1)C(=O)OC(C)C | 32 | 89 | 70 | 7
CC[C@H](C)[C@H](NC(=O)/C=C/c1ccc(Cl)cc1)C(=O)OC | 20 | 65 | 51 | 0
CCOC(=O)[C@@H](NC(=O)/C=C/c1ccc(Cl)cc1)[C@@H](C)CC | 42 | 50 | 58 | 0
CCOC(=O)[C@H](C)NC(=O)/C=C/c1ccc(Cl)cc1Cl | 12 | 52 | 55 | 0
CCCOC(=O)[C@H](C)NC(=O)/C=C/c1ccc(Cl)cc1Cl | 14 | 51 | 61 | 0
CC(C)OC(=O)CNC(=O)/C=C/c1ccc(Cl)cc1Cl | 38 | 94 | 70 | 9
COC(=O)[C@@H](NC(=O)/C=C/c1ccc(Cl)cc1Cl)C(C)C | 24 | 63 | 67 | 10
CC(C)OP(=O)(OC(C)C)SCc1ccccc1 [IPROBENFOS] | 69 | 100 | 89 | 42
CC(C)OC(=O)CNC(=O)/C=C/c1ccccc1 [ISOPROPYL 2-CINNAMAMIDOACETATE] | 15 | 61 | 42 | 
CCCOC(=O)CNC(=O)/C=C/c1ccccc1 [PROPYL 2-CINNAMAMIDOACETATE] | 26 | 53 | 47 | 
CCCOC/C(=N\c1ccc(Cl)cc1C(F)(F)F)n1ccnc1 [TRIFLUMIZOLE] | 64 | 100 | 94 | 71
